# Read-outs that look alike come from different tables or passages of the source.
# Legend:
# [1] = Steady-state PK in KPC mice fed metarrestin-infused chow; type: in vivo; conditions: for Kp / AUC0-24hr Ratio (Tissue/Plasma): 10 mg/kg/day; for Kp / Cmax / Tmax / AUC0-24hr Ratio (Tissue/Plasma): day 10, chow; for Kp: read-out: AUC0-24hr Ratio (Tissue/Plasma); for concentration at 0 h / concentration at 3 h / concentration at 6 h / concentration at 9 h / concentration at 12 h / concentration at 15 h / concentration at 24 h: day 10, 10 mg/kg/day (70 ppm) chow; for Cmax / Tmax: po
# [2] = Pharmacokinetics in C57BL/6 mice after single IV and PO administration; type: in vivo; conditions: for Kp: liver/plasma, read-out: AUC0–∞ ratio (tissue/plasma); for AUC(0-t): read-out: AUC0–24h
# Protocol: For pharmacokinetic studies, metarrestin solutions prepared in 30% PEG-400 and 70% (20% w:v HP-β-CD in water) solution were administered to C57BL/6 mice at 3 mg/kg IV via tail vein injection, or 3 and 10 mg/kg orally via gavage. KPC mice were additionally treated with 25 mg/kg PO via gavage. The dosing volume was 3 mL/kg for IV route and 10 mL/kg for PO route. Dosing solutions were prepared on the day of administration. Blood samples were collected at 10, 20 min, 1, 2, 4, 7 and 24 h after 3 mg/kg IV administration. After oral administration of 3 and 10 mg/kg in C57BL6 mice, blood and liver samples were collected at 10 min, 0.5, 1, 2, 3, 5, 7, 9 and 24 h post dosing (n = 3 per time point). In KPC mice, blood, pancreatic tumor, spleen and liver samples were collected at 1, 2, 3, 6, 9, 12 and 24 h after 25 mg/kg PO administration.
# Blood samples were collected in K2EDTA tubes and plasma was harvested after centrifugation at 3000 rpm for 10 min. Tissue samples were weighed and flash-frozen for PK and PD mRNA expression analyses, embedded into OCT blocks for PNC determination and processed into FFPE blocks for histopathology assessment. All PK samples were stored at − 80 °C until analysis.
# An ultra-performance liquid chromatography–tandem mass spectrometry (UPLC–MS/MS) method was developed to determine metarrestin concentrations in plasma and tissue samples. Mass spectrometric analysis was performed on a Waters Xevo TQ-S triple quadrupole instrument using electrospray ionization in positive mode. The separation was performed on an Acquity BEH C18 column (50 × 2.1 mm, 1.7 µ) using a Waters Acquity UPLC system with 0.6 mL/min flow rate and gradient elution. Mobile phase A was 0.1% formic acid in water, and B was 0.1% formic acid in acetonitrile (ACN). The column temperature was maintained at 60 °C. The calibration standards and quality control (QC) samples were prepared in the control blank mouse plasma and tissue homogenate. Tissues were homogenized with 3 or 6 volumes (v/w) of deionized water on the day of analysis. Proteins were precipitated from 10 µL plasma or 5 µL tissue homogenate with 200 µL ACN containing 100 ng/mL Tolbutamide as internal standard in 96-well plates. The mixture was vortexed for 2 min and centrifuged at 4000 rpm for 30 min at 4 °C. An aliquot of 150 µL supernatant was transferred to a 350-µL 96-well plate. 0.2 µL supernatant was injected for the UPLC–MS/MS analysis. Data were analyzed using MassLynx V4.1.
# The pharmacokinetic parameters were calculated using the non-compartmental approach (Models 200 and 201) of the pharmacokinetic software Phoenix WinNonlin, version 6.4 (Certara, St. Louis, MO). The area under the plasma concentration vs time curve (AUC) was calculated using the linear trapezoidal method. The slope of the apparent terminal phase was estimated by log linear regression using at least three data points and the terminal rate constant (λ) was derived from the slope. AUC0–∞ was estimated as the sum of the AUC0–t (where t is the time of the last measurable concentration) and Ct/λ. The apparent terminal half-life (t½) was calculated as 0.693/λ.
# [3] = KPC, mouse, plasma, oral, read-out: Plasma concentration
# [4] = KPC, mouse, liver, target dose 10 mg/kg/day
# [5] = KPC, mouse, plasma, target dose 10 mg/kg/day
# [6] = KPC, mouse, spleen, target dose 10 mg/kg/day
# [7] = KPC, mouse, tumor, target dose 10 mg/kg/day
# [8] = KPC, mouse, tumor, oral, read-out: Tumor concentration
# [9] = C57BL/6, mouse, liver, po, 3 mg/kg, 3 mg/kg PO single dose
# [10] = C57BL/6, mouse, liver, po, 10 mg/kg, 10 mg/kg PO single dose
# [11] = C57BL/6, mouse, liver, 3 mg/kg PO single dose
# [12] = C57BL/6, mouse, liver, 10 mg/kg PO single dose
# [13] = C57BL/6, mouse, plasma, 3 mg/kg IV single dose
# [14] = C57BL/6, mouse, plasma, 3 mg/kg PO single dose
# [15] = C57BL/6, mouse, plasma, 10 mg/kg PO single dose
smiles,measurement,setting,value
"N=c1c2c(-c3ccccc3)c(-c3ccccc3)n(Cc3ccccc3)c2ncn1[C@H]1CC[C@H](O)CC1 [metarrestin, Trans-4-(7-benzyl-4-imino-5,6-diphenyl-4,7-dihydro-3H-pyrrolo[2,3-d]pyrimidin-3-yl) cyclohexanol]",intratumor AUC0–24h,[1]; 10 mg/kg PO chow,"80,600 h ng/mL"
same,intratumor AUC0–24h,[1]; 10 mg/kg PO steady-state chow,"96,100 h ng/mL"
same,intratumor AUC levels,[1]; 10 mg/kg dosing with solid or liquid formulations,"> 80,000 ng h/mL"
same,Kp,"[1]; KPC, mouse, liver, oral, liver/plasma, target dose 10 mg/kg/day",> 20
same,AUC(0-t),"[1]; KPC, mouse, oral, plasma, day 10, chow 70 ppm, target dose 10 mg/kg/day, read-out: AUC0-24hr",4160 ng·h/mL
same,Kp,"[1]; KPC, mouse, pancreatic tumor, oral, tumor/plasma, target dose 10 mg/kg/day",> 20
same,concentration at 0 h,[1]; [3],0.46 µM
same,concentration at 3 h,[1]; [3],0.33 µM
same,concentration at 6 h,[1]; [3],0.3 µM
same,concentration at 9 h,[1]; [3],0.5 µM
same,concentration at 12 h,[1]; [3],0.43 µM
same,concentration at 15 h,[1]; [3],0.36 µM
same,concentration at 24 h,[1]; [3],0.27 µM
same,Cmax,[1]; [4],7250 ng/mL
same,Tmax,[1]; [4],12 h
same,Cmax,[1]; [5],237 ng/mL
same,Tmax,[1]; [5],9 h
same,Cmax,[1]; [6],5840 ng/mL
same,Tmax,[1]; [6],15 h
same,Cmax,[1]; [7],5100 ng/mL
same,Tmax,[1]; [7],9 h
same,Kp,"[1]; KPC, mouse, spleen, oral, spleen/plasma, target dose 10 mg/kg/day",> 20
same,concentration at 0 h,[1]; [8],7.9 µM
same,concentration at 3 h,[1]; [8],10.3 µM
same,concentration at 6 h,[1]; [8],8 µM
same,concentration at 9 h,[1]; [8],10.8 µM
same,concentration at 12 h,[1]; [8],10.7 µM
same,concentration at 15 h,[1]; [8],7.2 µM
same,concentration at 24 h,[1]; [8],6.7 µM
same,AUC0-24hr Ratio (Tissue/Plasma),"[1]; liver/plasma, target dose 10 mg/kg/day",37
same,AUC0-24hr,"[1]; liver, day 10, chow 70 ppm, target dose 10 mg/kg/day",153000 ng●hr/mL
same,AUC0-24hr Ratio (Tissue/Plasma),"[1]; spleen/plasma, target dose 10 mg/kg/day",26
same,AUC0-24hr,"[1]; spleen, day 10, chow 70 ppm, target dose 10 mg/kg/day",109000 ng●hr/mL
same,AUC0-24hr Ratio (Tissue/Plasma),"[1]; tumor/plasma, target dose 10 mg/kg/day",23
same,AUC0-24hr,"[1]; tumor, day 10, chow 70 ppm, target dose 10 mg/kg/day",96100 ng●hr/mL
same,Kp,[2]; [9],> 50
same,half-life,[2]; [9],4.7 h
same,Kp,[2]; [10],> 50
same,half-life,[2]; [10],4.1 h
same,half-life,"[2]; C57BL/6, mouse, plasma, intravenous, oral, 10 mg/kg, low doses of 3 and 10 mg/kg, span over groups",5 to 5.6 h
same,half-life,"[2]; C57BL/6, mouse, plasma, iv, 3 mg/kg, 3 mg/kg IV single dose",~5 h
same,half-life,"[2]; C57BL/6, mouse, plasma, po, 3 mg/kg, 3 mg/kg PO single dose",5.4 h
same,bioavailability,"[2]; C57BL/6, mouse, plasma, po, 10 mg/kg, single oral dose 3 and 10 mg/kg via gavage",> 80%
same,half-life,"[2]; C57BL/6, mouse, plasma, po, 10 mg/kg, 10 mg/kg PO single dose",5.6 h
same,AUC(0-inf),[2]; [11],68600 ng·h/mL
same,Cmax,[2]; [11],5420 ng/mL
same,Tmax,[2]; [11],1 h
same,AUC(0-t),[2]; [11],66100 ng·h/mL
same,AUC(0-inf),[2]; [12],281000 ng·h/mL
same,Cmax,[2]; [12],21400 ng/mL
same,Tmax,[2]; [12],2 h
same,AUC(0-t),[2]; [12],276000 ng·h/mL
same,AUC(0-inf),[2]; [13],1040 ng·h/mL
same,AUC(0-t),[2]; [13],1010 ng·h/mL
same,clearance,"[2]; C57BL/6, mouse, plasma, 3 mg/kg IV single dose, read-out: CLp (plasma clearance)",48 mL/min/kg
same,Vd,"[2]; C57BL/6, mouse, plasma, 3 mg/kg IV single dose, read-out: Vdss (steady-state volume of distribution)",17 L/kg
same,AUC(0-inf),[2]; [14],871 ng·h/mL
same,Cmax,[2]; [14],55.7 ng/mL
same,Tmax,[2]; [14],2 h
same,AUC(0-t),[2]; [14],823 ng·h/mL
same,AUC(0-inf),[2]; [15],4790 ng·h/mL
same,Cmax,[2]; [15],349 ng/mL
same,Tmax,[2]; [15],2 h
same,AUC(0-t),[2]; [15],4520 ng·h/mL
same,t 1/2,"[2]; plasma, 3 mg/kg IV single dose, 3 mg/kg",5 h
